Measured values taken from patent US6251898A, “Medical use of fluorenone derivatives for treating and preventing brain and spinal injury” (Questcor Pharmaceuticals, Inc., priority 1999, dated 2001).

Columns and labels:
[1] = tested on: neuronal damage caused by global brain ischemia; test: Global cerebral ischemia, bilateral carotid occlusion model in gerbils; format: in vivo, Mongolian gerbils
From the text: The surgical and drug treatment procedures used in the animal model of global brain ischemia are described in Example 24. "Global" ischemia occurs when the entire brain is deprived of oxygenated blood, as occurs during crises such as cardiac arrest, suffocation, or carbon monoxide poisoning. It should be noted that the drug treatment was provided only after the ischemic insult had been fully completed (i.e., after the clamps which were used to temporarily close the carotid arteries had been released again). "Post-trauma" treatment offers a much more realistic, and much more difficult and stringent, challenge than other assays in which test animals are pre-treated with a test drug before an ischemic insult begins.
In one set of in vivo tests, the bilateral carotid occlusion model in gerbils was used to evaluate the abilities of a selected compound, GERI-E7, to protect against neuronal damage caused by global brain ischemia. These tests were performed in the laboratory of Dr. Claude Wasterlain, at the Sepulveda Veterans Administration Medical Center, in Los Angeles, Calif.
Adult male Mongolian gerbils were subjected to reversible bilateral carotid occlusion for 5 minutes, according to standard methods (e.g., Wasterlain et al 1992 and 1996). Each gerbil in a test group was then treated with a test compound at either 2 or 20 mg/kg, dissolved in injectable saline and administered intravenously (IV). Control animals were treated with saline. All treatment and control groups had 10 animals per group. Body temperature was maintained throughout the procedure by a heat lamp and rectal probe.
The gerbils were sacrificed 72 hours after surgery, and their brains were perfusion-fixed with paraformaldehyde. Serial sections of the brain were cut and stained with hematoxylin and eosin, and quantitative cell counts of live and dead neurons were made, using light and fluorescence microscopy, in two different parts of the brain that are highly sensitive to ischemic damage: (i) the subiculum, a zone of transition between the parahippocampus and the hippocampus; and (ii) the CA1 portion of the hippocampus. Statistical analysis was performed on all damage scores (non-paired student t test). All evaluations were made using double-blinded methods.

[2] = tested on: neuronal damage caused by focal brain ischemia; test: Focal cerebral ischemia, middle cerebral artery occlusion model in rats; format: in vivo, Sprague-Dawley rats
Description: Other in vivo tests were also carried out using "focal" brain ischemia (i.e., blood supply to only a portion of the brain is disrupted, as usually occurs during a stroke). These assays used a surgical procedure described in Example 25, in which the right middle cerebral artery (MCA) and the right common carotid artery (CCA) of rats were clamped shut for two hours. The clamps were then removed, and the GERI-E7 was administered subsequently. The rats were sacrificed 3 days later, and brain sections were analyzed using tetrazolium dye, to determine the volumes of brain tissue with large numbers of dead or dying neurons.
In a second set of in vivo tests, a middle cerebral artery occlusion model was used in rats, to evaluate the ability of test compound GERI-E7 to reduce neuronal damage caused by focal brain ischemia. These tests were also performed in the laboratory of Dr. Claude Wasterlain, at the Sepulveda VA Medical Center in Los Angeles.
Male Sprague-Dawley rats (220 to 285 g) were intubated with an 18 gauge gavage needle and artificially respirated with a Harvard small animal respirator, 50 to 60 strokes/min, 2.0 to 3.0 cc. Anesthetization was induced by administering 1 to 2% methoxyflurane in a 1:2 O2 :N2 O gas mixture. To allow for rapid induction of the anesthetic state, succinylcholine (4 mg/kg, i.p.) was given immediately after anesthesia commenced, and surgery began 15 to 20 minutes later. Body temperature was maintained throughout by a heat lamp and rectal probe.
Focal cerebral ischemia was induced by reversibly clipping the right middle cerebral artery (MCA) and the right common carotid artery (CCA), as described in articles such as Kaplan et al 1991. A tracheal incision approximately 2.5 cm long was made, allowing placement of 4-0 suture silk under the CCA. This allowed rapid manipulation of the artery for clip placement. The temporalis muscle was partially excised and a 2 mm burr hole was drilled 2-3 mm rostral to the point of fusion of the zygoma with the temporal bone. Saline was used throughout this procedure for washing and maintenance of moisture.
The MCA was occluded below the rhinal fissure with a Codman Microaneurysm Clip #1. After the MCA was occluded the animal was turned onto its back and the CCA was occluded with a Roboz Microaneurysm Clip RS-5424.
A moistened piece of cotton was placed on the head wound and the tracheal region was partially closed by suture prior to placement of the animal in a warm cage with an oxygen tent. After a two-hour occlusion period (shown to produce a consistently measurable but non-lethal infarct), the clips were removed and methoxyflurane was administered via a nose cone. Visual verification was made for both artery occlusion, and post-occlusion reperfusion.
After the clips were removed and reperfusion was established, each animal was treated with either the GERI-E7 compound, at 20 mg/kg IV, or with the saline vehicle. All test and control groups had 10 animals. The wounds were closed and the animals were returned to their home cages.
Animals were sacrificed 72 hours later, and the brains were perfusion-fixedwith 4% paraformaldehyde. […] Infarct area was measured with an image analysis system at 8 to 10 levels between the posterior hippocampus and piriform olfactory cortex, to the level of the rhinal fissure. Infarct volume was determined by multiplying the average infarct area by the length of the brain between the posterior hippocampus and the piriform olfactory cortex. […]

CCC[C@]12CCC(=O)C=C1c1c(cc(OCC3=NCCO3)c(Cl)c1Cl)C2 [GERI-E7, R(+)-2-[[(5,6-dichloro-2,3,9,9a-tetrahydro-3-oxo-9a-propyl-1H-fluoren-7-yl)-oxy]methyl]oxazoline]
Reduction of dead or dying neurons in the hippocampus ([1]; CA1 region of hippocampus, IV after 5 min occlusion, 72 h, 2 or 20 mg/kg, on average): about 40% | Reduction of brain damage caused by global brain ischemia ([1]; animal model used): very effective in reducing brain damage | Reduction in neuronal damage levels in other brain regions ([1]; mainly visual semi-quantitative methods): significant reduction in neuronal damage levels in most of the other areas | Reduction in neuronal damage in both brain regions evaluated ([1]; subiculum and CA1, versus saline control, student t test): substantial and statistically significant reduction in neuronal damage | Reduction of dead or dying neurons in the subiculum ([1]; subiculum, IV after 5 min occlusion, 72 h, 2 or 20 mg/kg, on average): about 30% | Edema ([2]; 20 mg/kg IV after 2 h occlusion, 72 h): Edema was also reduced | Reduction of area of infarct volume ([2]; 20 mg/kg IV after 2 h occlusion, 72 h, FIG. 13): about 50% | Reduction of brain damage caused by focal brain ischemia ([2]; animal model used): very effective in reducing brain damage | Reduction of infarct volumes ([2]; first round of focal assays): about 30% | Reduction of infarct volumes ([2]; second set of assays, new batch stored in liquid nitrogen, mixed with carrier less than 24 hours before injection, average): 50%
